According to patent publication EP4818175A1, “NOVEL ANTIVIRAL COMPOUNDS” (Consejo Superior de Investigaciones Científicas (CSIC), priority 2025, dated 2026):

Test system: HSV-1 K26-GFP
Test: microbe, parasite or virus in culture
Type: cell-based, HSV-1 (F strain)
Conditions: Human alphaherpesvirus 1, Vero, 24 h; for inhibition at 20 µM: read-out: percentage inhibition at the highest concentration tested (20 µM)

Compound | EC50 [µM] | inhibition at 20 µM [%]
O=C1c2c(O)c(=O)ccn2N(Cc2ccc(-c3ccco3)cc2)[C@@H]2COCCN12 [Compound 18, (R)-12-(4-(furan-2-yl)benzyl)-7-hydroxy-3,4,12,12a-tetrahydro-1H-[1,4]oxazino[3,4-c]pyrido[2,1-f][1,2,4]triazine-6,8-dione] | > 20 | 48.5
O=C1c2c(O)c(=O)ccn2N(Cc2ccc(-c3ccccc3)cc2)[C@@H]2COCCN12 [Compound 19, (R)-12-([1,1'-biphenyl]-4-yimethyl)-7-hydroxy-3,4,12,12a-tetrahydro-1H-[1,4]oxazino[3,4-c]pyrido[2,1-f][1,2,4]triazine-6,8-dione] | 2.8 ± 1.1 | 
Nc1nc2c(ncn2COCCO)c(=O)[nH]1 [Acyclovir (ACV), Acyclovir, reference compound] | 0.68 ± 0.11 | 
O=C1c2c(O)c(=O)ccn2N(Cc2ccc(Cl)c(F)c2)[C@@H]2COCCN12 [Compound 10, (R)-12-(4-chloro-3-fluorobenzyl)-7-hydroxy-3,4,12,12a-tetrahydro-1H-[1,4]oxazino[3,4-c]pyrido[2,1-f][1,2,4]triazine-6,8-dione] | 10.3 ± 0.9 | 
O=C1c2c(O)c(=O)ccn2N([C@@H]2c3ccccc3SCc3c2ccc(F)c3F)[C@@H]2COCCN12 [Baloxavir acid, reference compound] | > 20 | 40.7
O=C1c2c(O)c(=O)ccn2N(Cc2ccc(-c3ccc(OC(F)(F)F)cc3)cc2)[C@@H]2COCCN12 [Compound 32, (R)-7-hydroxy-12-((4'-(trifluoromethoxy)-[1,1'-biphenyl]-4-yl)methyl)-3,4,12,12a-tetrahydro-1H-[1,4]oxazino[3,4-c]pyrido[2,1-f][1,2,4]triazine-6,8-dione] | 8.9 ± 1 | 
COC(=O)OCOc1c2n(ccc1=O)N([C@@H]1c3ccccc3SCc3c1ccc(F)c3F)[C@@H]1COCCN1C2=O [Baloxavir marboxil, reference compound] | > 20 | 13.7
O=C1c2c(O)c(=O)ccn2N(Cc2ccc(-c3ccc(F)cc3)cc2)[C@@H]2COCCN12 [Compound 29, (R)-12-((4'-fluoro-[1,1'-biphenyl]-4-yl)methyl)-7-hydroxy-3,4,12,12a-tefrahydro-1H-[1,4]oxazino[3,4-c]pyrido[2,1-f][1,2,4]triazine-6,8-dione] | 4 ± 1.3 | 
O=C1c2c(O)c(=O)ccn2N(Cc2ccc(C(F)(F)F)cc2)[C@@H]2COCCN12 [Compound 7, (R)-7-hydroxy-12-(4-(trifluoromethyl)benzyl)-3,4,12,12a-tetrahydro-1H-[1,4]oxazino[3,4-c]pyrido[2,1-f][1,2,4]triazine-6,8-dione] | 3.4 ± 2.7 | 
CC(C)c1ccc(O)c(O)c(=O)c1 [β-thujaplicinol, reference compound] | 3.9 ± 0.9 | 
